The source of these data is ChEMBL document CHEMBL4602617, “Discovery and optimization of heteroaryl piperazines as potent and selective PI3Kδ inhibitors” (Bioorg Med Chem Lett, 2020).

In experiment [1] the target is Serine/threonine-protein kinase BRSK1 (Homo sapiens, UniProt Q8TDC3). The experiment in a line: Inhibition of recombinant GST-tagged human BRSK1 expressed in baculovirus expression system using Ser/Thr-21 as substrate after 1 hr in presence of ATP by Z'-LYTE assay.
In experiment [2] the target is Endothelin-1 receptor (Homo sapiens) (UniProt P25101). The experiment in a line: Displacement of [125I]endothelin-1 from recombinant full length human recombinant ETA receptor expressed in CHO-S cells at 10 uM measured after 120 mins by radiometric scintillation analysis relative to control. In kind it is cell-based. Background: Loss of bound radioactivity is the signal in a displacement assay; it reports binding, not function.

For experiment [3], the target named is Vascular endothelial growth factor receptor 3 (Homo sapiens, UniProt P35916). The experiment is described as follows: Inhibition of recombinant human GST-tagged FLT4 cytoplasmic domain expressed in baculovirus expression system after 1 using tyrosine 4 as substrate after 1 hr in presence of ATP by ZYLTE assay.
Chain of Vascular endothelial growth factor receptor 3 (P35916 whole entry, the tested form may be a part): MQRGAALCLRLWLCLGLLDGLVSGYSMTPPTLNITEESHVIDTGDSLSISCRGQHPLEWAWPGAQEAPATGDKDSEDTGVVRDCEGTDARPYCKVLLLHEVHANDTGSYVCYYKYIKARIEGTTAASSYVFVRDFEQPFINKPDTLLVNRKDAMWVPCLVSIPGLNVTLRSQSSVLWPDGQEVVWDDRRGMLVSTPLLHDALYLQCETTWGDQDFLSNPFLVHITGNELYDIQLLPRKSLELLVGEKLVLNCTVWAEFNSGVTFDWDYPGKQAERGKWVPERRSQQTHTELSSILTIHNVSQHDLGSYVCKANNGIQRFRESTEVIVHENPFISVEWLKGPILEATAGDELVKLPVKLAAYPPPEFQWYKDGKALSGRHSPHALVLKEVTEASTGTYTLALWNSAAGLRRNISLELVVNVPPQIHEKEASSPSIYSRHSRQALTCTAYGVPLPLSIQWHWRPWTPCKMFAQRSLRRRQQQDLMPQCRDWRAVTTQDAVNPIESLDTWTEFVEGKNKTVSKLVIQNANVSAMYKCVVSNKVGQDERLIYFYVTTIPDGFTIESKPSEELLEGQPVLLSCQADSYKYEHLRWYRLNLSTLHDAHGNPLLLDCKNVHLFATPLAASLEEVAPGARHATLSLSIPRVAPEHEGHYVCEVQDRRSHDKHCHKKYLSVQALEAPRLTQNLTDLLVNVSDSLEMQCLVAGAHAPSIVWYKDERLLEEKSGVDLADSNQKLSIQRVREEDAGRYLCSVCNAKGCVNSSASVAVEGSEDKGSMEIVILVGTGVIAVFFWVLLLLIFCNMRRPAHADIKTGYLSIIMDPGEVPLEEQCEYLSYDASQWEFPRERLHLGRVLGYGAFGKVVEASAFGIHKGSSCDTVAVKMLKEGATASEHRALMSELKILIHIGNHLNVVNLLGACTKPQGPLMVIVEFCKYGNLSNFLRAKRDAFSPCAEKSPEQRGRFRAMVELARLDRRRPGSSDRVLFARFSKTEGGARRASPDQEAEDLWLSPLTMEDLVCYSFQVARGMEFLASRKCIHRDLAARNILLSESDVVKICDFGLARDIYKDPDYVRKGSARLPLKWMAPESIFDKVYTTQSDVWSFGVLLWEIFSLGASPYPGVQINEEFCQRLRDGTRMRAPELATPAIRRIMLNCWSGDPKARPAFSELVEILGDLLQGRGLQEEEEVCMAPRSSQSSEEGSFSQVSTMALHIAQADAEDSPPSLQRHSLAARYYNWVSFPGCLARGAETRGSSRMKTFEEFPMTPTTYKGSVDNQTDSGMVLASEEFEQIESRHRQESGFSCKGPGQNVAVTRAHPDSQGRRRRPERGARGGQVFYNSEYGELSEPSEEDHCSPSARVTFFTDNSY
Experiment [4] concerns the target Glycine receptor (Rattus norvegicus) (UniProt P22771+P24524+P07727+P20781). The experiment in a line: Displacement of [3H]strychnine from glycine ion channel in Wistar rat spinal cord membranes at 10 uM incubated for 10 mins by radiometric scintillation analysis relative to control. In kind it is cell membranes. Particulars: Membrane.
Experiment [5] concerns the target Ribosomal protein S6 kinase alpha-4 (Homo sapiens, UniProt O75676). The experiment in a line: Inhibition of recombinant full length human GST-tagged RPS6KA4 expressed in baculovirus expression system using ser/Thr01 peptide as substrate incubated for 60 mins in presence of ATP by Z'-LYTE assay.
The target of experiment [6] is Histamine H1 receptor (Homo sapiens) (UniProt P35367). The experiment is described as follows: Displacement of [3H]pyrilamine from full length human recombinant histamine H1 receptor expressed in CHO-K1 cells at 10 uM measured after 180 mins by radiometric scintillation analysis relative to control. In kind it is cell-based.
Experiment [7] addresses Serine/threonine-protein kinase TBK1 (Homo sapiens, UniProt Q9UHD2). The experiment in a line: Inhibition of recombinant full length human GST-tagged TBK1 expressed in insect expression system using serine/threonine-5 peptide as substrate incubated for 60 mins in presence of ATP by Z'-LYTE assay.
Experiment [8] addresses Dual specificity mitogen-activated protein kinase kinase 2 (Homo sapiens, UniProt P36507). The experiment in a line: Inhibition of recombinant full length human His-tagged MEK2 expressed in baculovirus expression system using serine/threonine-3 peptide as substrate incubated for 60 mins in presence of ATP by Z'-LYTE assay.
For the next experiment, the target named is Caspase-9 (Homo sapiens) (UniProt P55211). The experiment is described as follows: Inhibition of recombinant human caspase 9 expressed in Escherichia coli at 10 uM using Ac-LEHD-AFC as substrate after 60 mins by spectrophotometric analysis relative to control.
In experiment [9] the target is Tyrosine-protein kinase Lck (Homo sapiens, UniProt P06239). The experiment is described as follows: Inhibition of recombinant full length human His-tagged LCK expressed in baculovirus expression system using tyrosine-2 peptide as substrate incubated for 60 mins in presence of ATP by Z'-LYTE assay.
The target in experiment [10] is Serine/threonine-protein kinase MARK2 (Homo sapiens, UniProt Q7KZI7). The experiment in a line: Inhibition of recombinant full length human GST-tagged MARK2 expressed in baculovirus expression system using serine/threonine-21 peptide as substrate incubated for 60 mins in presence of ATP by Z'-LYTE assay.
Experiment [11] deals with Serine/threonine-protein kinase PAK 1 (Homo sapiens, UniProt Q13153). The experiment in a line: Inhibition of recombinant full length human GST-tagged PAK1 expressed in baculovirus expression system using serine/threonine-19 peptide as substrate incubated for 60 mins in presence of ATP by Z'-LYTE assay.
For a further experiment, the species on record is Homo sapiens. The experiment is described as follows: Selectivity index, ratio IC50 for inhibition of recombinant human full-length N-terminal His6-tagged p110alpha/untagged full-length p85alpha expressed in baculovirus infected Sf21 cells to ratio IC50 for inhibition of recombinant human full-length N-terminal GST-tagged p110delta/untagged full-length p85alpha expressed in baculovirus infected Sf21 cells.

The target in the next experiment is Misshapen-like kinase 1 (Homo sapiens, UniProt Q8N4C8). The experiment in a line: Inhibition of recombinant human MINK1 catalytic domain expressed in baculovirus expression system using Ser/Thr 07 peptide as substrate after 1 hr in presence of ATP by Z'LYTE assay.
Chain of Misshapen-like kinase 1 (Q8N4C8 whole entry, the tested form may be a part): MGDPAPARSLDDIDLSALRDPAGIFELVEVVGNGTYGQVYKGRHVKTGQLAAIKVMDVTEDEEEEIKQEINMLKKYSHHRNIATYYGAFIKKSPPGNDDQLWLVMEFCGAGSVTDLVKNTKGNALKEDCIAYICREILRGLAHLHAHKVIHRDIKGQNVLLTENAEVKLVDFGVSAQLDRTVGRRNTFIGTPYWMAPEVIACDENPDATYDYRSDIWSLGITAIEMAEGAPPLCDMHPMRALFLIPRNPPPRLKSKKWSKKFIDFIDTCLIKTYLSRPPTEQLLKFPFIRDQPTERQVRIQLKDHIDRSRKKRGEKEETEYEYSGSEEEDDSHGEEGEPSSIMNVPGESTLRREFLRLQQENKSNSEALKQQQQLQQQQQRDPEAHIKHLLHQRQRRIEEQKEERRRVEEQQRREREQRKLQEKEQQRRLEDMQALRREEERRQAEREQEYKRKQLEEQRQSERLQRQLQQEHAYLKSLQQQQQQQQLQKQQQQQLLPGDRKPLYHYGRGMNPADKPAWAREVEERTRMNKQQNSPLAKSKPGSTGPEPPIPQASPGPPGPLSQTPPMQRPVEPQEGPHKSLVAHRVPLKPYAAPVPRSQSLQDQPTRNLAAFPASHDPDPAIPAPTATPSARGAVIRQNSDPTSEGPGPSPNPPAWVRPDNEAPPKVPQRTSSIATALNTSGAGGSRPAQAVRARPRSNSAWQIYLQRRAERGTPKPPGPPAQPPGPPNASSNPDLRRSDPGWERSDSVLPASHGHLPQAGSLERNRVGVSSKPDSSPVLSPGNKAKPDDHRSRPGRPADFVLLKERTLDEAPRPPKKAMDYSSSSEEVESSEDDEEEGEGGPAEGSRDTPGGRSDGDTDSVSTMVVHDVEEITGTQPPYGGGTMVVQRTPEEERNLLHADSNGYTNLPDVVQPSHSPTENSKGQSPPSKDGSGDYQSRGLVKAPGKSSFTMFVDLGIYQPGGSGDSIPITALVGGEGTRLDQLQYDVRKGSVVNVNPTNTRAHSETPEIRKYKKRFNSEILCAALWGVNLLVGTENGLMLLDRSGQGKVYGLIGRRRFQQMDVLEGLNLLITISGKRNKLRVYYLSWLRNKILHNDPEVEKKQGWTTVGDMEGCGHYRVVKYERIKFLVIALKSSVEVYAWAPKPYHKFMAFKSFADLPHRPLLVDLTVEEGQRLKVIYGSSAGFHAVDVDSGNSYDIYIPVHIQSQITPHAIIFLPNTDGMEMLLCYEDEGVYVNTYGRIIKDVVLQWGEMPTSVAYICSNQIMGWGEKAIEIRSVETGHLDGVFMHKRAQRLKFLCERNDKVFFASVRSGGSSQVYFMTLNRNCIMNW
Experiment [12] concerns the target Peroxisome proliferator-activated receptor alpha (Homo sapiens) (UniProt Q07869). The experiment in a line: Inhibition of human PPARalpha expressed in Escherichia coli at 10 uM relative to control.
Experiment [13] has as its target Mitogen-activated protein kinase 11 (Homo sapiens, UniProt Q15759). The experiment is described as follows: Inhibition of recombinant full length human His-tagged p38beta expressed in baculovirus expression system using serine/threonine-15 peptide as substrate incubated for 60 mins in presence of ATP by Z'-LYTE assay.
Experiment [14] has as its target Serine/threonine-protein kinase 24 (Homo sapiens, UniProt Q9Y6E0). The experiment is described as follows: Inhibition of recombinant full length human GST-tagged MST3 expressed in baculovirus expression system using serine/threonine-7 peptide as substrate incubated for 60 mins in presence of ATP by Z'-LYTE assay.
Experiment [15] deals with Serine/threonine-protein kinase Chk1 (Homo sapiens, UniProt O14757). The experiment in a line: Inhibition of recombinant human full-length His-tagged CHEK1 expressed in baculovirus expression system using FRET-labeled Ser/Thr 19 peptide as substrate measured after 1 hr in presence of ATP by Z'-lyte assay.
Chain of Serine/threonine-protein kinase Chk1 (O14757 whole entry): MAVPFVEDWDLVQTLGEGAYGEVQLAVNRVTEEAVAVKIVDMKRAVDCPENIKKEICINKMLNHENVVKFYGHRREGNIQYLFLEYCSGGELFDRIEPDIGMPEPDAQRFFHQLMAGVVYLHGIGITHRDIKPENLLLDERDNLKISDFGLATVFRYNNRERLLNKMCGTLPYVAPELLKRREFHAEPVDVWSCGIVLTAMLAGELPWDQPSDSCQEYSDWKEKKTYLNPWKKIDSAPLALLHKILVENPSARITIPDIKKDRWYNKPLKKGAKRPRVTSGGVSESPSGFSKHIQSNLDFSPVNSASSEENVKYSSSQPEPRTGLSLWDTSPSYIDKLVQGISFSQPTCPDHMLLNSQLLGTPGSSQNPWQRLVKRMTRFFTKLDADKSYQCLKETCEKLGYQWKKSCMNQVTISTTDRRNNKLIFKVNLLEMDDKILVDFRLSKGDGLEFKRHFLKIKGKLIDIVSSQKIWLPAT
The target of experiment [16] is Tyrosine-protein kinase receptor UFO (Homo sapiens, UniProt P30530). The experiment in a line: Inhibition of recombinant full length human GST-tagged AXL expressed in insect expression system using tyrosine-6 peptide as substrate incubated for 60 mins in presence of ATP by Z'-LYTE assay.
In another experiment the target is Sphingosine kinase 1 (Homo sapiens, UniProt Q9NYA1). The experiment is described as follows: Inhibition of recombinant full length human GST-tagged SPHK1 expressed in baculovirus expression system using sphingosine lipid as substrate incubated for 60 mins in presence of ATP by Adapta assay.
Chain of Sphingosine kinase 1 (Q9NYA1 whole entry): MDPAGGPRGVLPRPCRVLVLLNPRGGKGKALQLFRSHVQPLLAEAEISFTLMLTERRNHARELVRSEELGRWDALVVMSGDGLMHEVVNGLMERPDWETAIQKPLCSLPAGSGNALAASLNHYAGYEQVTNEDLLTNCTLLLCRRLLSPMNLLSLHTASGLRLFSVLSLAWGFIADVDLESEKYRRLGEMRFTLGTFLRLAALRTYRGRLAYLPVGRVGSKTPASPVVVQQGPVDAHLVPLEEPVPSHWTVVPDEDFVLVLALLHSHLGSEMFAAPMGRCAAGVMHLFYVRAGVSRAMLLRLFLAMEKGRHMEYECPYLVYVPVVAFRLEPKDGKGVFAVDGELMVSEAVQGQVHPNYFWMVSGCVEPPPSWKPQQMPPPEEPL
Experiment [17] has as its target GABA-A receptor; anion channel (Rattus norvegicus) (UniProt O09028+P15431+P18506+P18508+P19969+P20236+P23574+P23576+P28471+P28473+P30191+P62813+P63079+P63138+Q91ZM7+Q9ES14). The experiment in a line: Displacement of [3H]-Ro15-1788 from GABA(A) receptor in Wistar rat hippocampus at 10 uM incubated for 120 mins by radiometric scintillation analysis relative to control. In kind it is tissue-based.

The target in experiment [18] is Mast/stem cell growth factor receptor Kit (Homo sapiens, UniProt P10721, T670I). The experiment is described as follows: Inhibition of recombinant human His-tagged KIT (544 to 976 residues) harboring T670I mutant expressed in baculovirus expression system using tyrosine-6 peptide as substrate incubated for 60 mins in presence of ATP by Z'-LYTE assay.
Experiment [19] concerns the target Corticotropin-releasing factor receptor 1 (Homo sapiens) (UniProt P34998). The experiment in a line: Displacement of [125I](Tyr0)-CRF from recombinant full length human recombinant CRF1 expressed in CHO-K1 cells at 10 uM measured after 60 mins by radiometric scintillation analysis relative to control. In kind it is cell-based.
The target in experiment [20] is Alpha-1D adrenergic receptor (Homo sapiens) (UniProt P25100). The experiment is described as follows: Displacement of [3H]prazosin from recombinant full length human alpha1d adrenergic receptor expressed in HEK293 cell membranes at 10 uM measured after 60 mins by scintillation counting method relative to control.

Chain of Serine/threonine-protein kinase TBK1 (Q9UHD2 whole entry): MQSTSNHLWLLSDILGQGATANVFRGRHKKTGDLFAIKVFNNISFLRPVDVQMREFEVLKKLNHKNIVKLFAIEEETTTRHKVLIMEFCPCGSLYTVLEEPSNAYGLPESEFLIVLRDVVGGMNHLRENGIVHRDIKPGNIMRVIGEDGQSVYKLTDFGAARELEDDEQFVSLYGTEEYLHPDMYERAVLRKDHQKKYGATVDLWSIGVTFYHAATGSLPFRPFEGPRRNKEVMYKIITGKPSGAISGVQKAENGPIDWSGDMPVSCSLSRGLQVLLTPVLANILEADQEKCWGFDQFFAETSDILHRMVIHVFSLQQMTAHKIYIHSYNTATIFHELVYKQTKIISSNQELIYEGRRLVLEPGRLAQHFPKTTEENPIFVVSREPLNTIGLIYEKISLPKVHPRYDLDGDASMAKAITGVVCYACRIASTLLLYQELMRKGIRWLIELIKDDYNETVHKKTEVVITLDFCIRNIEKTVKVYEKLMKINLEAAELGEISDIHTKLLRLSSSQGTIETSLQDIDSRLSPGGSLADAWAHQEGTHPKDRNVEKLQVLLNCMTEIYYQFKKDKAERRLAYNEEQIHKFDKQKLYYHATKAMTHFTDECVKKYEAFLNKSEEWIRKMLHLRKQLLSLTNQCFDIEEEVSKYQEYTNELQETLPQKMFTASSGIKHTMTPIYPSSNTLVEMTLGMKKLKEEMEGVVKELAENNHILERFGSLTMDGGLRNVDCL
Chain of Corticotropin-releasing factor receptor 1 (Homo sapiens) (P34998 whole entry): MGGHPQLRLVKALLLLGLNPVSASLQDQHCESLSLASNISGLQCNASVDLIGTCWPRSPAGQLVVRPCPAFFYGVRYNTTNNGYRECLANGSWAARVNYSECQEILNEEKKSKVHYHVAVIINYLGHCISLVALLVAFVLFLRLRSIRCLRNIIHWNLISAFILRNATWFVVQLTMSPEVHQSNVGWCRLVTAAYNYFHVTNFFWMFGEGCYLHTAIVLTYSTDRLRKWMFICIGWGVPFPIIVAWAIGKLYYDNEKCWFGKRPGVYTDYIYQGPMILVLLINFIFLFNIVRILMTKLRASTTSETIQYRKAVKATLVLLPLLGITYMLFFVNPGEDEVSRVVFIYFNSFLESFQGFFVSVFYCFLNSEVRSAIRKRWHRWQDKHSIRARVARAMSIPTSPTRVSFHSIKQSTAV
Chain of Mitogen-activated protein kinase 11 (Q15759 whole entry): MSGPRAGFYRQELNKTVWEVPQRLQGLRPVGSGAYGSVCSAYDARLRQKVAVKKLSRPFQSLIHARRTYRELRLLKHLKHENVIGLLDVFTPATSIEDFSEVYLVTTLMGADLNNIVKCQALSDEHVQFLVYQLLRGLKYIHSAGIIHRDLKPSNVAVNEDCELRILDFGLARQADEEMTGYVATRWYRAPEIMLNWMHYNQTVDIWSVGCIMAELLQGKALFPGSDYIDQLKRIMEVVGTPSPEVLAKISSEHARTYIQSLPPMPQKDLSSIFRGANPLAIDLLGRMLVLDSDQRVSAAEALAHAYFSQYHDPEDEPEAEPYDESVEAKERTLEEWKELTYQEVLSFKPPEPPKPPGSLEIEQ

For the compound `C[C@@H]1C[C@H]1C(=O)N1CCN(c2cnc(C#N)c(-c3cnn(C)c3)n2)C[C@H]1C`, the IC50 in experiment [1], in experiment [3], in [5], in experiment [7], in experiment [8] and in experiment [9] was greater than 100 µM in each case. For the same compound, the IC50 – broadly, the concentration at which inhibition is half-maximal – in [10] is greater than 100 µM; in experiment [11] it was greater than 100 µM; on Misshapen-like kinase 1 it was 25.6 µM; in [13] it was greater than 100 µM; in experiment [14], greater than 100 µM; in [15], greater than 100 µM. The IC50 in experiment [16] is greater than 100 µM; at Sphingosine kinase 1 it was 13.8 µM; in experiment [18], greater than 100 µM. For the same compound, the inhibition (usually the drop in the measured response relative to a control, in per cent) in experiment [2] was -9%; in [4] it was 3%; in [6] it was 12%; at Caspase-9 (Homo sapiens), 2%; in [12], greater than 50%; in experiment [17] it was -3%. For the same compound, the inhibition amounted to 6% in experiment [19] and 5% in [20]. For the same compound, in the experiment filed under Homo sapiens, the Ratio IC50 was greater than 373.
